Experiments:
panel of 442 kinases [1] = target: T1, panel of 442 kinases (Homo sapiens, UniProt P29597); format: binding; conditions: compound concentration 10 µM; for % Ctrl, TYK2(JH1domain-catalytic): kinase TYK2(JH1domain-catalytic); for % Ctrl, TYK2(JH2domain-pseudokinase): kinase TYK2(JH2domain-pseudokinase)
T1 construct: purchased KINOMEscan
Excerpt: (§1) We assessed the selectivity of members of this scaffold using the KINOMEscan methodology across a near comprehensive panel of 442 kinases [[18,27]].

panel of 442 kinases [2] = target: T2, panel of 442 kinases (Homo sapiens, UniProt O14757); format: binding; conditions: Compound Concentration 10 µM
T2 construct: purchased KINOMEscan
T2 sequence (O14757 1-476): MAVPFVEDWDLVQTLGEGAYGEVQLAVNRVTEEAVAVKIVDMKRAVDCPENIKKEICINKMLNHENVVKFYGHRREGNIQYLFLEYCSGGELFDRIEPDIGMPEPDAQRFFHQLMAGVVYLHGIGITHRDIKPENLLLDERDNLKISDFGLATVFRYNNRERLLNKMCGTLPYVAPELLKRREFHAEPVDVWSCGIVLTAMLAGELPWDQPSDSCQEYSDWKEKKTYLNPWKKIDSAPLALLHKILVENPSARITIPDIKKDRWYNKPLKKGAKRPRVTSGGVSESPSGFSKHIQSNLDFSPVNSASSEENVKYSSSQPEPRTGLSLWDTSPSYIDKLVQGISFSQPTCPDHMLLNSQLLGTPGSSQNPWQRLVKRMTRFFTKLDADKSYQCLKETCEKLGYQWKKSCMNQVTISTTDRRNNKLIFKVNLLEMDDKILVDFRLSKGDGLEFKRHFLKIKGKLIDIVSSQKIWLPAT
Excerpt: as §1

T1 sequence (P29597 whole entry): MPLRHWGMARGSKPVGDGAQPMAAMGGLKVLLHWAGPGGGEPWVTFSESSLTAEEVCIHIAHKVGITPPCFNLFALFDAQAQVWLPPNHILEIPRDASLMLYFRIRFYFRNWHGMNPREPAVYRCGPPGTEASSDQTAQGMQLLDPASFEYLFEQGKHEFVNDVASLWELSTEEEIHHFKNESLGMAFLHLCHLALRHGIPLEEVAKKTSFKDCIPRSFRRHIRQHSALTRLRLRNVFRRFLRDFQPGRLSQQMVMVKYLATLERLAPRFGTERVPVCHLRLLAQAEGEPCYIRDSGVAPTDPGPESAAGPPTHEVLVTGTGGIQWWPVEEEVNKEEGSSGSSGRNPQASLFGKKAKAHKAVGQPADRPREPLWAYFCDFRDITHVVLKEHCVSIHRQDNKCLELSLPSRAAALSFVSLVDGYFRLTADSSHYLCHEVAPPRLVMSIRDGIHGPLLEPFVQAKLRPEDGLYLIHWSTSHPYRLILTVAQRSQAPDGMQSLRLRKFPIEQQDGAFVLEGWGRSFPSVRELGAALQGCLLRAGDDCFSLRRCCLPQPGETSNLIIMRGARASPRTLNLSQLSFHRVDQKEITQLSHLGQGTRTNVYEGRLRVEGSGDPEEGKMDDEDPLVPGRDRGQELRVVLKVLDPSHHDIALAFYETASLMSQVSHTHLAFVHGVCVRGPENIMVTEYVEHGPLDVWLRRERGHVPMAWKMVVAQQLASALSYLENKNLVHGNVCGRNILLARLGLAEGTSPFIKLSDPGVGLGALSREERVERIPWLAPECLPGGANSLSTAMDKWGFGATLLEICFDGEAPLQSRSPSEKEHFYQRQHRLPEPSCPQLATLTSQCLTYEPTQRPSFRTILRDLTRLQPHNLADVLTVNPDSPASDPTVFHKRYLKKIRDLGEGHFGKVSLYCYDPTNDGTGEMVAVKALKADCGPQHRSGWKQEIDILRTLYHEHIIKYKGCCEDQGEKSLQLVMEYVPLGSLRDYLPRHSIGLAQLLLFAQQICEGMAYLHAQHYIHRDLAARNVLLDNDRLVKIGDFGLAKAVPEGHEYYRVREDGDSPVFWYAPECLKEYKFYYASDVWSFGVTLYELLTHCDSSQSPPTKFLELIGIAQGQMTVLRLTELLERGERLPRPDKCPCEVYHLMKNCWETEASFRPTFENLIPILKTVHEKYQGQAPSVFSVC

Row | SMILES | % Ctrl, TYK2(JH1domain-catalytic) (panel of 442 kinases [1]) [% Ctrl] | % Ctrl, TYK2(JH2domain-pseudokinase) (panel of 442 kinases [1]) [% Ctrl] | KINOMEscan: CHEK1 (panel of 442 kinases [2])
1 | COc1cc(C(=O)N2CCC(N3CCN(C)CC3)CC2)ccc1Nc1ncc2c(n1)N(C1CCCC1)c1ccccc1C(=O)N2C [Compound 25, 11-cyclopentyl-2-((2-methoxy-4-(4-(4-methylpiperazin-1-yl)piperidine-1-carbonyl)phenyl)amino)-5-methyl-5H-benzo[e]pyrimido[5,4-b][1,4]diazepin-6(11H)-one] | 100 | 100 | 100
2 | COc1cc(C(=O)N2CCC(N3CCN(C)CC3)CC2)ccc1Nc1ncc2c(n1)N1CCc3cccc(c31)C(=O)N2C [Compound 24] | – | – | 85
3 | COc1cc(C(=O)N2CCC(N3CCN(C)CC3)CC2)ccc1Nc1ncc2c(n1)N(C)c1ccccc1C(=O)N2C [15 (LRRK2-IN-1)] | 52 | 100 | 100
4 | CCOc1cc(C(=O)N2CCC(N3CCN(C)CC3)CC2)ccc1Nc1ncc2c(n1)N(C1CCCC1)c1ccccc1C(=O)N2C [Compound 26] | 81 | 100 | 100

Source: PMC3914206
